Test results published in patent US9086390B2, “Dabigatran etexilate and related substances, processes and compositions, and use of the substances as reference standards and markers” (Medichem, S.A., priority 2011, dated 2015).
Structures can show the parent of a compound that is named as a salt.

Test: not given
Conditions: cited from earlier work

| SMILES | main hydrolysis product in vivo |
| --- | --- |
| CCCCCCOC(=O)NC(=N)c1ccc(NCc2nc3cc(C(=O)N(CCC(=O)OCC)c4ccccn4)ccc3n2C)cc1 [dabigatran etexilate mesylate, reference compound] | a compound of formula (D1), namely dabigatran |

Test: Accelerated stability study of dabigatran etexilate mesylate (impurity contents by HPLC method 1)
Assay type: physicochemical
Conditions: content of the named impurity in dabigatran etexilate mesylate of Example 6 after storage in a double polyethylene bag at 40° C. and 75% relative humidity for 3 months; HPLC method 1; area % with respect to dabigatran etexilate
Method: The chromatographic separation was carried out in a Kromasil 100-5C18, 5 μm, 4.6×250 mm column at 25° C. The mobile phase was prepared by filtering and degassing an acetonitrile/buffer solution (45:55) v/v mixture. The buffer solution was obtained by preparing a 50 mM formic acid solution in water and adjusting the pH to 3.8 with ammonium hydroxide. The chromatograph was equipped with a 254 nm detector and the flow rate was 1.0 mL per minute. 20 μL of the test samples were injected. The samples were prepared by dissolving the appropriate amount of sample in mobile phase, to obtain a concentration of about 1.0 mg/mL. The chromatogram was run for at least 30 min. […] Impurity contents are expressed in area % with respect to dabigatran etexilate.

| SMILES | Compound/Impurity contents (area %) Example 7 [area %] |
| --- | --- |
| CCOC(=O)c1ccc2c(c1)nc(CNc1ccc(C(=N)N)cc1)n2C [Compound (A1), ethyl 2-{[(4-{carbamimidoyl}phenyl)amino]methyl}-1-methyl-1H-benzimidazol-5-carboxylate] | 0.38 |
| CCCCCCOC(=O)/N=C(/N)c1ccc(NCc2nc3cc(C(=O)OCC)ccc3n2C)cc1 [Compound (A2), ethyl 2-{[(4-{[(hexyloxy)carbonyl]carbamimidoyl}phenyl)amino]methyl}-1-methyl-1H-benzimidazol-5-carboxylate] | 0.42 |
| CCCCCCOC(=O)NC(=O)c1ccc(NCc2nc3cc(C(=O)N(CCC(=O)O)c4ccccn4)ccc3n2C)cc1 [Compound (B1), 3-{[(2-{[(4-{[({hexyloxy}carbonyl)amino]carbonyl}phenyl)amino]methyl}-1-methyl-1H-benzimidazol-5-yl)carbonyl](pyridin-2-yl)amino}propanoic acid] | 3.8 |
| CCCCCCOC(=O)NC(=O)c1ccc(NCc2nc3cc(C(=O)N(CCC(=O)OC)c4ccccn4)ccc3n2C)cc1 [Compound (B2), methyl 3-{[(2-{[(4-{[({hexyloxy}carbonyl)amino]carbonyl}phenyl)amino]methyl}-1-methyl-1H-benzimidazol-5-yl)carbonyl](pyridin-2-yl)amino}propanoate] | 0.25 |
| CCCCCCOC(=O)NC(=O)c1ccc(NCc2nc3cc(C(=O)N(CCC(=O)OCC)c4ccccn4)ccc3n2C)cc1 [Compound (B3), ethyl 3-{[(2-{[(4-{[({hexyloxy}carbonyl)amino]carbonyl}phenyl)amino]methyl}-1-methyl-1H-benzimidazol-5-yl)carbonyl](pyridin-2-yl)amino}propanoate] | 7.62 |
| CCCCCCOC(=O)/N=C(/N)c1ccc(NCc2nc3cc(C(=O)N(CCC(N)=O)c4ccccn4)ccc3n2C)cc1 [Compound (B4), 3-{[(2-{[(4-{[(hexyloxy)carbonyl]carbamimidoyl}phenyl)amino]methyl}-1-methyl-1H-benzimidazol-5-yl)carbonyl](pyridin-2-yl)amino}propanamide] | 0.71 |
| Cn1c(CNc2ccc(C(=N)N)cc2)nc2cc(C(=O)N(CCC(=O)O)c3ccccn3)ccc21 [Compound (C1), 3-{[(2-{[(4-{carbamimidoyl}phenyl)amino]methyl}-1-methyl-1H-benzimidazol-5-yl)carbonyl](pyridin-2-yl)amino}propanoic acid, reference compound] | 1.64 |
| CCCCCCOC(=O)/N=C(/N)c1ccc(NCc2nc3cc(C(=O)N(CCC(=O)O)c4ccccn4)ccc3n2C)cc1 [Compound (C2), 3-{[(2-{[(4-{[(hexyloxy)carbonyl]carbamimidoyl}phenyl)amino]methyl}-1-methyl-1H-benzimidazol-5-yl)carbonyl](pyridin-2-yl)amino}propanoic acid] | 1.57 |
| CCCCCCOC(=O)/N=C(/N)c1ccc(NCc2nc3cc(C(=O)N(CCC(=O)OC)c4ccccn4)ccc3n2C)cc1 [Compound (C3), methyl 3-{[(2-{[(4-{[(hexyloxy)carbonyl]carbamimidoyl}phenyl)amino]methyl}-1-methyl-1H-benzimidazol-5-yl)carbonyl](pyridin-2-yl)amino}propanoate] | 0.32 |
| CCCCCCOC(=O)/N=C(/N)c1ccc(N)cc1 [Compound (D), 4-{[(hexyloxy)carbonyl]carbamimidoyl}aniline] | 0.18 |

Same assay, conditions: on storage, 40° C. and 75% relative humidity, moisture

| SMILES | main hydrolysis product on storage |
| --- | --- |
| CCCCCCOC(=O)NC(=N)c1ccc(NCc2nc3cc(C(=O)N(CCC(=O)OCC)c4ccccn4)ccc3n2C)cc1 [dabigatran etexilate mesylate, reference compound] | a compound of formula (B), especially compound (B3) |
